Experimental data taken from ChEMBL document CHEMBL5058564, “EUbOPEN Chemogenomics Library 2 (Incucyte)” (2022).

Experiments:
Type in all cases: toxicity, cell-based
[1] = test system: HEK-293T; assay: Incucyte cell viability with HEK293T; conditions: human, 10 µM, compound concentration 10 uM
[2] = test system: Fibroblast; assay: Incucyte cell viability with human fibroblast; conditions: 10 µM, compound concentration 10 uM
[3] = test system: U2OS; assay: Incucyte cell viability with U2OS; conditions: human, 10 µM, compound concentration 10 uM
[4] = 6 h, replicate number 1, timepoint 6 hours
[5] = 6 h, replicate number 2, timepoint 6 hours
[6] = 12 h, replicate number 1, timepoint 12 hours
[7] = 12 h, replicate number 2, timepoint 12 hours
[8] = 18 h, replicate number 1, timepoint 18 hours
[9] = 18 h, replicate number 2, timepoint 18 hours
[10] = 24 h, replicate number 1, timepoint 24 hours
[11] = 24 h, replicate number 2, timepoint 24 hours
[12] = 0 h, replicate number 2, timepoint 0 hours
[13] = 0 h, replicate number 1, timepoint 0 hours
Further: unitless GR value; below 1 slowed growth and below 0 cell loss.

Structure (SMILES) | Growth Rate [1, 4] | Growth Rate [1, 6] | Growth Rate [1, 7] | Growth Rate [1, 8] | Growth Rate [1, 9] | Growth Rate [1, 10] | Growth Rate [1, 11] | Growth Rate [2, 4] | Growth Rate [2, 6] | Growth Rate [2, 7] | Growth Rate [2, 8] | Growth Rate [2, 9] | Growth Rate [2, 10] | Growth Rate [2, 11] | Growth Rate [3, 4] | Growth Rate [3, 5] | Growth Rate [3, 7] | Growth Rate [3, 8] | Growth Rate [1, 12] | Growth Rate [3, 12] | other results
COC(=O)Nc1nc2ccc(C(=O)c3cccs3)cc2[nH]1 [NOCODAZOLE] | -0.46 | -0.24 | -0.32 | -0.22 | -0.34 | -0.22 | -0.26 | -0.86 | -0.6 | -0.2 | -0.54 | -0.04 | -0.33 | 0.08 | 0.3 | 0.24 | -0.16 | 0.03 | – | – | Growth Rate [1, 5]: -0.49; Growth Rate [2, 5]: -0.39; Growth Rate [3, 6]: 0.1; Growth Rate [3, 9]: -0.36; Growth Rate [3, 10]: -0.06; Growth Rate [3, 11]: -0.35
O=C(O)Cc1ccccc1Nc1c(Cl)cccc1Cl [DICLOFENAC] | 0.97 | – | – | – | – | – | – | 0.86 | – | – | – | – | – | – | – | 0.98 | – | – | 0.45 | -1 | Growth Rate [2, 13]: 0.78; Growth Rate [2, 12]: 0.28
O=C(O)CCC/C=C\CC1C(O)CC(O)C1/C=C/C(O)COc1cccc(Cl)c1 (stereo not drawn) [CLOPROSTENOL] | 0.34 | 0.74 | – | 0.75 | 0.99 | 0.95 | – | -0.06 | 0.25 | – | 0.2 | – | 0.18 | – | – | 0.74 | – | 0.7 | 0.63 | -0.99 | Growth Rate [1, 5]: 0.93; Growth Rate [2, 12]: 0.34; Growth Rate [3, 13]: -0.27
CCCCC/C=C\C/C=C\C/C=C\C/C=C\CCCC(=O)OC(CO)CO [2-ARACHIDONOYLGLYCEROL] | 0.94 | 0.72 | 0.51 | 0.64 | 0.69 | 0.67 | 0.75 | – | – | – | – | – | 0.93 | – | – | – | 0.9 | – | – | 0.65 | Growth Rate [3, 10]: 0.81; Growth Rate [3, 11]: 0.99
Br.Cc1cccc(C2CN(C)CCc3c2cc(O)c(O)c3Cl)c1 (stereo not drawn) | 0.81 | 0.71 | 0.8 | 0.95 | 0.81 | 0.93 | – | – | – | – | – | – | – | – | – | 0.97 | – | 0.87 | 0.8 | – | Growth Rate [1, 5]: 0.45; Growth Rate [2, 13]: -0.09; Growth Rate [2, 12]: 0.18; Growth Rate [3, 6]: 0.92; Growth Rate [3, 9]: 0.92; Growth Rate [3, 10]: 0.84; Growth Rate [3, 11]: 0.97
Cl.Cl.NCCc1c[nH]cn1 [HISTAMINE DIHYDROCHLORIDE] | 0.99 | 0.79 | – | 0.83 | 0.79 | 0.82 | 0.75 | – | 0.77 | 1 | 0.99 | 0.87 | 0.52 | 0.76 | 0.35 | – | 0.97 | 0.74 | 0.62 | 0.37 | Growth Rate [1, 13]: 0.54; Growth Rate [2, 13]: 0.45; Growth Rate [3, 13]: 0.04; Growth Rate [3, 6]: 0.76
CC(C)(C)c1cc(NC(=O)Nc2ccc(-c3cn4c(n3)sc3cc(OCCN5CCOCC5)ccc34)cc2)no1 [QUIZARTINIB] | -0.18 | – | -0.06 | – | 0.17 | – | 0.22 | – | – | 1 | – | 0.89 | – | 0.78 | 0.41 | – | 0.51 | – | – | – | Growth Rate [1, 13]: 0.2; Growth Rate [2, 13]: -0.84; Growth Rate [2, 12]: 0.43; Growth Rate [3, 9]: 0.52; Growth Rate [3, 11]: 0.65
CCc1nn2c(C)cc(C)nc2c1Cc1ccc(-c2nnc(C3CCNCC3)o2)cc1 | 0.9 | – | – | 0.88 | – | – | – | -0.59 | -0.55 | 0.37 | -0.43 | 0.56 | -0.25 | 0.65 | – | – | – | – | 0.38 | 0.09 | Growth Rate [2, 5]: 0.22
O=C1NCc2ccc3c(-c4cccc(Cl)c4)c[nH]c3c21 | -0.52 | -0.31 | -0.09 | -0.21 | -0.1 | -0.19 | -0.07 | -0.99 | -0.86 | -0.4 | -0.65 | -0.18 | -0.39 | 0.01 | 0.17 | -0.08 | -0.24 | 0.03 | – | 0.01 | Growth Rate [1, 5]: -0.56; Growth Rate [2, 5]: -0.83; Growth Rate [3, 13]: -0.28; Growth Rate [3, 6]: 0.07; Growth Rate [3, 9]: -0.24; Growth Rate [3, 10]: -0.13; Growth Rate [3, 11]: -0.28
CC(C)c1cc(Oc2c(Cl)cc(-n3nc(C#N)c(=O)[nH]c3=O)cc2Cl)n[nH]c1=O [RESMETIROM] | 0.99 | 0.77 | – | – | 0.96 | – | 0.86 | – | – | 0.74 | – | 0.87 | – | 0.85 | 0.7 | 0.54 | 0.75 | 0.83 | 0.23 | 0.06 | Growth Rate [1, 13]: 0.01; Growth Rate [2, 13]: -0.06; Growth Rate [2, 12]: 0.82; Growth Rate [2, 5]: 0.58; Growth Rate [3, 13]: 0.87; Growth Rate [3, 9]: 0.79; Growth Rate [3, 10]: 0.99
